Experimental data published in publication PMC8480901 (PLoS ONE, 2021).
Where “and” joins values, the source holds several entries; their conditions need not be identical. Equal entries are not always repeated.

Tested on: human PBMCs
Test: LPS-induced cytokine and chemokine levels in human PBMC supernatant (Luminex, ELISA)
Assay type: cell-based
Conditions: for CCl2, % reduction / CXCL1 % reduction / CXCL2 % reduction / MMP9 % reduction / CCl2, Mean / CXCL1, Mean / CXCL2, Mean / MMP9, Mean / CCl2, individual value / CXCL1, individual value / CXCL2, individual value / MMP9, individual value: LPS-stimulated PBMC supernatant; for CCl2, Mean / CXCL1, Mean / CXCL2, Mean / MMP9, Mean: sample size 2; for CCl2, individual value / CXCL1, individual value / CXCL2, individual value / MMP9, individual value: single replicate
[1] = LPS-stimulated human PBMC supernatant, 0.03 µM

With `C=C[C@]1(C)C[C@@H](OC(=O)CS[C@@H]2CC[C@@H](N)C[C@H]2O)[C@]2(C)[C@H](C)CC[C@]3(CCC(=O)[C@H]32)[C@@H](C)[C@@H]1O` [Lefamulin] the “CCl2, % reduction” value (0.03 µM) was -3.52%, the “CXCL1 % reduction” value (0.03 µM) was -11% and the “CXCL2 % reduction” value (0.03 µM) was -3%. For the same compound, the “MMP9 % reduction” value (0.03 µM) was -7%, the “CCl2, Mean” value (0.03 µM) was 1309 pg/mL and the “CXCL1, Mean” value (0.03 µM) was 6607 pg/mL. For the same compound, the “CXCL2, Mean” value (0.03 µM) was 5213 pg/mL, the “MMP9, Mean” value (0.03 µM) was 3113 pg/mL and the “CCl2, individual value” (0.03 µM) was 1274 pg/mL and 1344 pg/mL. The “CXCL1, individual value” (0.03 µM) was 6599 pg/mL and 6616 pg/mL, the “CXCL2, individual value” (0.03 µM) was 5117 pg/mL and 5308 pg/mL and the “MMP9, individual value” (0.03 µM) was 3135 pg/mL and 3092 pg/mL. For the same compound, the “CCl2, % reduction” value (0.1 µM) was -1%, the “CXCL1 % reduction” value (0.1 µM) was -3% and the “CXCL2 % reduction” value (0.1 µM) was 3%. For the same compound, the “MMP9 % reduction” value (0.1 µM) was 6%, the “CCl2, Mean” value (0.1 µM) was 1279 pg/mL and the “CXCL1, Mean” value (0.1 µM) was 6126 pg/mL. For the same compound, the “CXCL2, Mean” value (0.1 µM) was 4904 pg/mL, the “MMP9, Mean” value (0.1 µM) was 2899 pg/mL and the “CCl2, individual value” (0.1 µM) was 1178 pg/mL and 1379 pg/mL. The “CXCL1, individual value” (0.1 µM) was 5750 pg/mL and 6502 pg/mL, the “CXCL2, individual value” (0.1 µM) was 4854 pg/mL and 4955 pg/mL and the “MMP9, individual value” (0.1 µM) was 2852 pg/mL and 2946 pg/mL. The “CCl2, % reduction” value (0.3 µM) was -8%, the “CXCL1 % reduction” value (0.3 µM) was -11% and the “CXCL2 % reduction” value (0.3 µM) was -1.83%. The “MMP9 % reduction” value (0.3 µM) was -13%, the “CCl2, Mean” value (0.3 µM) was 1360 pg/mL and the “CXCL1, Mean” value (0.3 µM) was 6577 pg/mL. For the same compound, the “CXCL2, Mean” value (0.3 µM) was 5150 pg/mL, the “MMP9, Mean” value (0.3 µM) was 3213 pg/mL and the “CCl2, individual value” (0.3 µM) was 1440 pg/mL and 1281 pg/mL. For the same compound, the “CXCL1, individual value” (0.3 µM) was 6950 pg/mL and 6204 pg/mL, the “CXCL2, individual value” (0.3 µM) was 5157 pg/mL and 5144 pg/mL and the “MMP9, individual value” (0.3 µM) was 3328 pg/mL and 3097 pg/mL. For the same compound, the “CCl2, % reduction” value (1 µM) was -4.42%, the “CXCL1 % reduction” value (1 µM) was -4.56% and the “CXCL2 % reduction” value (1 µM) was 2.67%. The “MMP9 % reduction” value (1 µM) was -10%, the “CCl2, Mean” value (1 µM) was 1320 pg/mL and the “CXCL1, Mean” value (1 µM) was 6222 pg/mL. For the same compound, the “CXCL2, Mean” value (1 µM) was 4923 pg/mL, the “MMP9, Mean” value (1 µM) was 3154 pg/mL and the “CCl2, individual value” (1 µM) was 1176 pg/mL and 1464 pg/mL. For the same compound, the “CXCL1, individual value” (1 µM) was 5695 pg/mL and 6750 pg/mL, the “CXCL2, individual value” (1 µM) was 4726 pg/mL and 5120 pg/mL and the “MMP9, individual value” (1 µM) was 3230 pg/mL and 3077 pg/mL. For the same compound, the “CCl2, % reduction” value (3 µM) was -29%, the “CXCL1 % reduction” value (3 µM) was -12% and the “CXCL2 % reduction” value (3 µM) was -3.75%. For the same compound, the “MMP9 % reduction” value (3 µM) was -3%, the “CCl2, Mean” value (3 µM) was 1626 pg/mL and the “CXCL1, Mean” value (3 µM) was 6685 pg/mL. For the same compound, the “CXCL2, Mean” value (3 µM) was 5247 pg/mL, the “MMP9, Mean” value (3 µM) was 3044 pg/mL and the “CCl2, individual value” (3 µM) was 1606 pg/mL and 1647 pg/mL. For the same compound, the “CXCL1, individual value” (3 µM) was 6614 pg/mL and 6757 pg/mL, the “CXCL2, individual value” (3 µM) was 5389 pg/mL and 5104 pg/mL and the “MMP9, individual value” (3 µM) was 3098 pg/mL and 2991 pg/mL. For the same compound, the “CCl2, % reduction” value (10 µM) was -40%, the “CXCL1 % reduction” value (10 µM) was -16% and the “CXCL2 % reduction” value (10 µM) was 2.3%. The “MMP9 % reduction” value (10 µM) was 13%, the “CCl2, Mean” value (10 µM) was 1763 pg/mL and the “CXCL1, Mean” value (10 µM) was 6870 pg/mL. The “CXCL2, Mean” value (10 µM) was 4942 pg/mL, the “MMP9, Mean” value (10 µM) was 2781 pg/mL and the “CCl2, individual value” (10 µM) was 1714 pg/mL and 1811 pg/mL. The “CXCL1, individual value” (10 µM) was 6794 pg/mL and 6946 pg/mL, the “CXCL2, individual value” (10 µM) was 4972 pg/mL and 4912 pg/mL and the “MMP9, individual value” (10 µM) was 2867 pg/mL and 2696 pg/mL. The “CCl2, % reduction” value (30 µM) was 8%, the “CXCL1 % reduction” value (30 µM) was 7% and the “CXCL2 % reduction” value (30 µM) was 6%. The “MMP9 % reduction” value (30 µM) was 27%, the “CCl2, Mean” value (30 µM) was 1163 pg/mL and the “CXCL1, Mean” value (30 µM) was 5540 pg/mL. The “CXCL2, Mean” value (30 µM) was 4765 pg/mL, the “MMP9, Mean” value (30 µM) was 2563 pg/mL and the “CCl2, individual value” (30 µM) was 1184 pg/mL and 1143 pg/mL. For the same compound, the “CXCL1, individual value” (30 µM) was 5594 pg/mL and 5487 pg/mL, the “CXCL2, individual value” (30 µM) was 4928 pg/mL and 4603 pg/mL and the “MMP9, individual value” (30 µM) was 2485 pg/mL and 2640 pg/mL. The “CCl2, % reduction” value (100 µM) was 92%, the “CXCL1 % reduction” value (100 µM) was 73% and the “CXCL2 % reduction” value (100 µM) was 2.31%. For the same compound, the “MMP9 % reduction” value (100 µM) was 11%, the “CCl2, Mean” value (100 µM) was 141 pg/mL and the “CXCL1, Mean” value (100 µM) was 1638 pg/mL. The “CXCL2, Mean” value (100 µM) was 4941 pg/mL, the “MMP9, Mean” value (100 µM) was 2809 pg/mL and the “CCl2, individual value” (100 µM) was 141 pg/mL. The “CXCL1, individual value” (100 µM) was 1562 pg/mL and 1715 pg/mL, the “CXCL2, individual value” (100 µM) was 4788 pg/mL and 5094 pg/mL and the “MMP9, individual value” (100 µM) was 2812 pg/mL and 2806 pg/mL. The GM-CSF % reduction [1] was -7%, the “GM-CSF [pg/mL], Mean” value [1] was 705 pg/mL and the “GM-CSF [pg/mL], individual value” [1] was 721 pg/mL and 689 pg/mL. The IL-1β % reduction [1] was -4.62%, the “IL-1β [pg/mL], Mean” value [1] was 13375 pg/mL and the “IL-1β [pg/mL], individual value” [1] was 13502 pg/mL and 13249 pg/mL. The IL-6 % reduction [1] was 9%, the “IL-6 [pg/mL], Mean” value [1] was 31710 pg/mL and the “IL-6 [pg/mL], individual value” [1] was 32710 pg/mL and 30710 pg/mL. For the same compound, the IL-8 % reduction [1] was -7%, the “IL-8 [pg/mL], Mean” value [1] was 3113 pg/mL and the “IL-8 [pg/mL], individual value” [1] was 3135 pg/mL and 3092 pg/mL.
